{"source": "ChEMBL document CHEMBL4402558", "about": "“Designing Chimeric Molecules for Drug Discovery by Leveraging Chemical Biology” (J Med Chem, 2020)", "species": "Homo sapiens", "test": "Antitumour activity against human DLBCL patients assessed as response rate co-treatment with rituximab relative to control", "assay_type": "functional", "data": [{"smiles": "Cn1c(CCCC(=O)O)nc2cc(N(CCCl)CCCl)ccc21", "values": [{"measurement": "Activity", "result": 18, "unit": "%"}]}]}
